From patent US20240327801A1, “EFFICIENT CELL CULTURE SYSTEM FOR HEPATITIS C VIRUS GENOTYPE 4a” (Hvidovre Hospital, priority 2021, published 2024) come the findings set out here.

The subject of experiment [1] is ED43-virus. Type of experiment: cell-based, hepatitis C virus genotype 4a.
For experiment [2], the system named is SOFesc virus (ED43 sofosbuvir escape virus). As to the kind of experiment: microbe, parasite or virus in culture. To be noted: Hepatitis C virus, Huh7.5 cells, 48 hours treatment, read-out: EC50 (nM [95% CI]). Type of experiment: cell-based.
Experiment [3] relates to original ED43 virus (HCV genotype 4a full-length culture virus). As to the kind of experiment: concentration-response (EC50) assay, original virus. To be noted: Hepatitis C virus, Huh7.5, 48 h, read-out: EC50 (nM [95% CI]).
Protocol: Huh7.5 cells were seeded on 96-well plates overnight, then infected with the indicated viruses for 24 hours. The cells were subsequently treated with specific inhibitors for an additional 48 hours before analysis as described (Pham et al. 2018; Gottwein et al. 2011). Values are means of triplicates±SEM. The original D43 virus was used in these two experiments as a control. TN (1a) virus was included for comparison.
Huhu7.5 cells were seeded on 96-well plates overnight, then infected with the indicated viruses for 24 hours. The cells were subsequently treated with specific inhibitors for an additional 48 hours before analysis as described (Pham et al. 2018; Gottwein et al. 2011). Values are means of triplicates±SEM. The original ED43 virus was used as a control. TN (1a) virus was included for comparison.
For concentration-response assays using described methods (Pham et al. 2018; Ramirez et al. 2016; Ramirez et al. 2014), stocks of non-treated and of single-treatment escape viruses were prepared. […] The half-maximal effective concentration (EC50) value was calculated using GraphPad Prism 6.

Read-outs that look alike come from different tables or passages of the source. Some results are limits rather than exact numbers.

What is called EC50 is the concentration giving half of the maximal effect.

With `COC(=O)N[C@H](C(=O)N1CCC[C@H]1c1nc(-c2ccc3c(c2)O[C@@H](c2ccccc2)n2c-3cc3cc(-c4c[nH]c([C@@H]5CCCN5C(=O)[C@@H](NC(=O)OC)C(C)C)n4)ccc32)c[nH]1)C(C)C` [elbasvir], the “emergence of main RASs responsible for ED43 escape” value (shortened to “emergence of main RASs responsible”) in experiment [1] (100×EC50) turned out to be 5 days.

`COC(=O)N[C@H](C(=O)N1CC2(CC2)C[C@H]1c1nc(-c2ccc3c(c2)C(F)(F)c2cc(-c4ccc5[nH]c([C@@H]6[C@H]7CC[C@H](C7)N6C(=O)[C@@H](NC(=O)OC)C(C)C)nc5c4)ccc2-3)c[nH]1)C(C)C` [ledipasvir]: the “emergence of main RASs responsible” value in experiment [1] (100×EC50) turned out to be 5 days.

For the molecule `COC(=O)N[C@H](C(=O)N1CCC[C@H]1C(=O)Nc1ccc([C@@H]2CC[C@@H](c3ccc(NC(=O)[C@@H]4CCCN4C(=O)[C@@H](NC(=O)OC)C(C)C)cc3)N2c2ccc(C(C)(C)C)cc2)cc1)C(C)C` [ombitasvir], the “emergence of main RASs responsible” value in experiment [1] (100×EC50) was 5 days.

Consider `Cc1cnc(C(=O)N[C@H]2CCCCC/C=C\[C@@H]3C[C@@]3(C(=O)NS(=O)(=O)C3CC3)NC(=O)[C@@H]3C[C@@H](Oc4nc5ccccc5c5ccccc45)CN3C2=O)cn1` [paritaprevir], for which, in experiment [1] (8×EC50), the “emergence of RAS NS3P-D168E after treatment initiation” value was 7 days and the “viral escape / viral spread under treatment” value is 16 days.

In turn, `COC(=O)N[C@H](C(=O)N1CCC[C@H]1c1nc2cc([C@H]3CC[C@H](c4cc5nc([C@@H]6CCCN6C(=O)[C@@H](NC(=O)OC)[C@@H](C)OC)[nH]c5cc4F)N3c3cc(F)c(N4CCC(c5ccc(F)cc5)CC4)c(F)c3)c(F)cc2[nH]1)[C@@H](C)OC` [pibrentasvir] yielded a viral escape in experiment [1] (5×EC50) not above 33 days. Also, the treatment outcome in experiment [1] (10×EC50) was “viral eradication”.

For `CC(C)OC(=O)[C@H](C)N[P@](=O)(OC[C@H]1O[C@@H](n2ccc(=O)[nH]c2=O)[C@](C)(F)[C@@H]1O)Oc1ccccc1` [sofosbuvir], the EC50 in experiment [2] is 2250 nM; in experiment [3], 668 nM. In addition, in experiment [1] (2×EC50 (initiated at 1×EC50, increased at day 9)), the viral escape came to 77 days.

As to `COC[C@H]1C[C@@H](c2nc(-c3ccc4c(c3)COc3cc5c(ccc6nc([C@@H]7CC[C@H](C)N7C(=O)[C@@H](NC(=O)OC)C(C)C)[nH]c65)cc3-4)c[nH]2)N(C(=O)[C@H](NC(=O)OC)c2ccccc2)C1` [velpatasvir], the viral escape entry in experiment [1] (100×EC50) is on record as “did not observe viral escape”.
